{"source": "paper PMC3498823", "about": "(Bioorganic & medicinal chemistry letters, 2011)", "key": {"[1]": {"test_system": "amphetamine induced hyperlocomotion in rats", "test": "reversal of amphetamine-induced hyperlocomotion", "assay_type": "in vivo", "details": "30 mg/kg i.p."}, "mGlu5 receptor [2]": {"target": "mGlu5 receptor (Rattus norvegicus, UniProt P31424)", "sequence (P31424 21-1203)": "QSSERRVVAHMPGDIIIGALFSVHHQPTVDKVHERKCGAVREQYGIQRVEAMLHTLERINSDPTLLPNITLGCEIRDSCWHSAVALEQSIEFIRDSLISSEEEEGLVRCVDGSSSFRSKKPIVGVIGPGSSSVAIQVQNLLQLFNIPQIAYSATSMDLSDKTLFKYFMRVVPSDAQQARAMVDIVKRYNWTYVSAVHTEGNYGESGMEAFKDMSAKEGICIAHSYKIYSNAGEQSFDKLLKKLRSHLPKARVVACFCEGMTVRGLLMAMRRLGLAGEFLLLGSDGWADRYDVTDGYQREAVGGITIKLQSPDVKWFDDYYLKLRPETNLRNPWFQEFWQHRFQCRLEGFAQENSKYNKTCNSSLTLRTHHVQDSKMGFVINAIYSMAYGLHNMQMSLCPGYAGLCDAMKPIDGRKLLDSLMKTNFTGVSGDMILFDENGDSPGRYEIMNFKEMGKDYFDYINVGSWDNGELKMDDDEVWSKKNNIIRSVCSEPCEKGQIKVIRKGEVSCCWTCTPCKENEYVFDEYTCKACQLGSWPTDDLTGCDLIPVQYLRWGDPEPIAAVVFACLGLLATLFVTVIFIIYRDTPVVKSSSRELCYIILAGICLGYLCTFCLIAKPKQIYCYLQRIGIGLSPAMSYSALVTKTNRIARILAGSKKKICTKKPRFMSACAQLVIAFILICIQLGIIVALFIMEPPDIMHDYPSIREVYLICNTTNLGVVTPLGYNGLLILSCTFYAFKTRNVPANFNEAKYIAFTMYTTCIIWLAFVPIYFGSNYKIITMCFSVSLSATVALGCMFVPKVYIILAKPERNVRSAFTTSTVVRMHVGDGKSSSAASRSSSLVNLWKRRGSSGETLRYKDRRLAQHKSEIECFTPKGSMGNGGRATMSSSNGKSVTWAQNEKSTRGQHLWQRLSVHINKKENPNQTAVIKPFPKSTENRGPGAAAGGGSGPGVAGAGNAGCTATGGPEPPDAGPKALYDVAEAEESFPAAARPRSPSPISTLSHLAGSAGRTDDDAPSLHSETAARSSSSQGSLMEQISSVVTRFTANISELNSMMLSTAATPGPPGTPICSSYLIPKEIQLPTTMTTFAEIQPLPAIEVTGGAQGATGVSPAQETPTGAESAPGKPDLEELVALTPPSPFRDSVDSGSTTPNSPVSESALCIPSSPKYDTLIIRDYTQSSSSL", "test": "triple-add functional calcium mobilization assay, mGlu5", "assay_type": "cell-based", "details": "PAM, Ago-PAM, weak PAM or partial antagonist"}, "mGlu5 receptor [3]": {"test_system": "mGlu5 receptor", "sequence (P31424 21-1203)": "as above", "test": "triple-add functional calcium mobilization assay, mGlu5", "assay_type": "cell-based", "details": "PAM, Ago-PAM, weak PAM or partial antagonist"}, "mGlu5 receptor [4]": {"test_system": "mGlu5 receptor", "details": "HTS lead; cited from earlier work"}, "[5]": {"test_system": "in vivo preclinical antipsychotic model", "details": "orally active; cited from earlier work"}}, "note": "Entries after “also recorded” stand apart in the source; their conditions may differ.", "data": [{"smiles": "O=C1NCCc2cc(C#Cc3ccccc3)ccc21", "note": "[9a]", "values": [{"measurement": "reversal of amphetamine-induced hyperlocomotion", "setting": "[1]", "result": "significant reversal"}]}, {"smiles": "CCCN1CCc2cc(C#Cc3ccccc3)ccc2C1=O", "note": "[9c]", "values": [{"measurement": "reversal of amphetamine-induced hyperlocomotion", "setting": "[1]", "result": "significant reversal; also recorded: Reversal of amphetamine-induced hyperlocomotion"}]}, {"smiles": "O=C1c2ccc(C#Cc3ccccc3)cc2CCN1CC1CC1", "note": "[9f]", "values": [{"measurement": "reversal of amphetamine-induced hyperlocomotion", "setting": "[1]", "result": "significant reversal"}]}, {"smiles": "CN1CCc2nc(C#Cc3cccc(F)c3)ccc2C1=O", "note": "[10b]", "values": [{"measurement": "Category (mode of pharmacology)", "setting": "mGlu5 receptor [2]", "result": "partial antagonists; also recorded: Partial Antag"}]}, {"smiles": "CC(C)CN1CCc2nc(C#Cc3cccc(F)c3)ccc2C1=O", "note": "[10c]", "values": [{"measurement": "Category (mode of pharmacology)", "setting": "mGlu5 receptor [3]", "result": "Weak PAM"}]}, {"smiles": "CCCCN1CCc2nc(C#Cc3cccc(F)c3)ccc2C1=O", "note": "[10d]", "values": [{"measurement": "Category (mode of pharmacology)", "setting": "mGlu5 receptor [3]", "result": "Weak PAM"}]}, {"smiles": "O=C1c2ccc(C#Cc3cccc(F)c3)nc2CCN1CC1CC1", "note": "[10e]", "values": [{"measurement": "Category (mode of pharmacology)", "setting": "mGlu5 receptor [2]", "result": "partial antagonists; also recorded: Partial Antag"}]}, {"smiles": "O=C(c1ccc(C#Cc2ccccc2)cc1)N1CCC(O)CC1", "note": "[VU0092273]", "values": [{"measurement": "ligand efficiency (LE)", "setting": "mGlu5 receptor [4]", "result": "~0.5"}]}, {"smiles": "O=C(NC1CCC1)c1ccc(C#Cc2cccc(F)c2)nc1", "note": "[VU0360172]", "values": [{"measurement": "efficacy in an in vivo preclinical antipsychotic model", "setting": "[5]", "result": "efficacious"}]}]}
